For the assay, the target named is T1, recombinant human CDK1/Cyclin B complex (Homo sapiens, UniProt P06493).
T1 construct: made in house; host or cells: High Five insect cells (baculovirus) for CDK1/GST-cyclin B; M15 E. coli for the Rb substrate
T1 sequence (P06493 whole entry): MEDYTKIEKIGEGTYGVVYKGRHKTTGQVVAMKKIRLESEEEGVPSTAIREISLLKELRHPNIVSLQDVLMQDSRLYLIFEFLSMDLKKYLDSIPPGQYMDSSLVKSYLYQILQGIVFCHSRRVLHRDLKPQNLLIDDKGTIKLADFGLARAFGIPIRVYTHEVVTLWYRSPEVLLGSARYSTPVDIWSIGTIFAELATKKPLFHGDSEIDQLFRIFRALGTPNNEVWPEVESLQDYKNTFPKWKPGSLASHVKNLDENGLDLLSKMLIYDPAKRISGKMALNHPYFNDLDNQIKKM
T1 sequence (P14635 whole entry partner): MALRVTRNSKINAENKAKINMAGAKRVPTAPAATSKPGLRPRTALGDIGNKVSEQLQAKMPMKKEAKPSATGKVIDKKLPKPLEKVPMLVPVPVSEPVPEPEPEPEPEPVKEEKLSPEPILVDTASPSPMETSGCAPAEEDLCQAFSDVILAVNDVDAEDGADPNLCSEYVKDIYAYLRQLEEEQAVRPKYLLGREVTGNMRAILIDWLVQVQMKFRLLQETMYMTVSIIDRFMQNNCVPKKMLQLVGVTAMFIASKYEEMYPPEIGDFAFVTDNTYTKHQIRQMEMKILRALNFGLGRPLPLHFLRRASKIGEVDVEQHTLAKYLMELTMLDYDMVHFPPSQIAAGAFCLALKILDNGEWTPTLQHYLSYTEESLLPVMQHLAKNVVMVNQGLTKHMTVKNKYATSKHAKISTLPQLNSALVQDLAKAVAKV
Description: CDK1/Cyclin B kinase assay (FlashPlate or HTRF). The format is biochemical. As to conditions: Rb protein substrate, Ki=IC50/(1+[S]/Km). As to the method:
To determine inhibition of CDK1 activity, either FlashPlate™ (NEN™-Life Science Products) assay or HTRF assay was performed. Both types of kinase assays were carried out using recombinant human CDK1/Cyclin B complex. GST-cyclinB (GST-cycB) and CDK1 cDNA clones in baculovirus vectors were provided by Dr. W. Harper at the Baylor College of Medicine, Houston, Tex. Proteins were co-expressed in High Five™ insect cells and the complex was purified on glutathione Sepharose resin (Pharmacia, Piscataway, N.J.) as previously described (Harper, J. W. et al. Cell 1993, 75, 805-816). A 6×-Histidine tagged truncated form of retinoblastoma (Rb) protein (amino acid 386-928) was used as the substrate for the CDK1/Cyclin B assay (the expression plasmid was provided by Dr. Veronica Sullivan, Department of Molecular Virology, Roche Research Centre, Welwyn Garden City, United Kingdom). The Rb protein is a natural substrate for phosphorylation by CDK1 (see Herwig and Strauss Eur. J. Biochem. Vol. 246 (1997) pp. 581-601 and the references cited therein). The expression of the 62Kd protein was under the control of an IPTG inducible promoter in an M15 E. coli strain. Cells were lysed by sonication and purification was carried out by binding lysates at pH 8.0 to a Ni-chelated agarose column pretreated with 1 mM imidazole. The resin was then washed several times with incrementally decreasing pH buffers to pH 6.0, and eluted with 500 mM imidazole. Eluted protein was dialysed against 20 mM HEPES pH 7.5, 30% glycerol, 200 mM NaCl, and 1 mM DTT. Purified Rb fusion protein stocks were quantitated for protein concentration, aliquoted, and stored at −70° C.
For the FlashPlate kinase assay, 96-well FlashPlates were coated with Rb protein at 10 μg/ml, using 100 μl per well. Plates were incubated at 4° C. overnight or at room temperature for 3 hours on a shaker. To control for nonspecific phosphorylation, one row of wells was coated with 100 μl/well coating buffer (20 mM HEPES, 0.2 M NaCl). Plates were then washed twice with wash buffer (0.01% Tween 20 in phosphate-buffered saline). Compounds to be tested (“test compounds”) were added to the wells at 5× final concentration. Reactions were initiated by immediate addition of 40 μl reaction mix (25 mM HEPES, 20 mM MgCl2, 0.002% Tween 20, 2 mM DTT, 1 μM ATP, 4 nM 33P-ATP) and a sufficient amount of enzyme to give counts that were at least 10-fold above background. Plates were incubated at room temperature on a shaker for 30 minutes. Plates were washed four times with the wash buffer, sealed, and counted on the TopCount scintillation counter (Packard Instrument Co., Downers Grove, Ill.]. The percent inhibition of Rb phosphorylation, which is a measure of the inhibition of CDK activity, was determined according to the following formula:
[formula] where “test compound” refers to the average counts per minute of the test duplicates, “nonspecific” refers to the average counts per minute when no CDK1/Cyclin B, etc., was added, and “total” refers to the average counts per minute when no compound was added. […] The value of the inhibitor constant Ki is calculated by the following: Ki=IC50/(1+[S]/Km), where [S] is the ATP concentration and Km is Michaelis constant.
The Homogeneous Time Resolved Fluorescence (HTRF) kinase assay was carried out in 96-well polypropylene plates (BD Biosciences, Bedford, Mass.). […]
Background: In TR-FRET formats the signal depends on donor and acceptor labels being close together.
A word on the Ki: it is the equilibrium dissociation constant of an inhibitor or competing ligand from its target. Take `NC1=NC(=O)/C(=C/c2ccc3ncccc3n2)S1` [Example 4, 2-Amino-5-[1,5]naphthyridin-2-ylmethylene-thiazol-4-one]: the Ki turned out to be 4.67 µM.
As to `O=C1N=C(NCc2ccc(F)c(Cl)c2)S/C1=C\c1ccc2ncccc2n1` [Example 8, 2-(3-Chloro-4-fluoro-benzylamino)-5-[1,5]naphthyridin-2-ylmethylene-thiazol-4-one], the Ki is 0.279 µM.
With `Cc1cccc(Cl)c1CNC1=NC(=O)/C(=C/c2ccc3ncccc3n2)S1` [Example 12, 2-(2-Chloro-6-methyl-benzylamino)-5-[1,5]naphthyridin-2-ylmethylene-thiazol-4-one] the figure was 0.0317 µM; with `CC(=O)NC1=NC(=O)/C(=C/c2ccc3ncccc3n2)N1` [Example 16, N-(5-[1,5]Naphthyridin-2-ylmethylene-4-oxo-4,5-dihydro-1H-imidazol-2-yl)-acetamide], 1.18 µM.
In the case of `O=C1N=C(NCc2ccc(C(F)(F)F)cc2C(F)(F)F)N/C1=C\c1ccc2ncccc2n1` [Example 20, 2-(2,4-Bis-trifluoromethyl-benzylamino)-5-[1,5]naphthyridin-2-ylmethylene-1,5-dihydro-imidazol-4-one] it was 0.735 µM.

(Values after patent US7268231B2, “1,5-Naphthyridine azolinone” (Hoffmann-La Roche Inc., priority 2004, dated 2007).)
